Experiment [1] has as its system C127-LT. As to the kind of experiment: Inhibition of HDAC in mouse C127-LT cells assessed as activation of EGFP expression at 10 uM after 24 hrs by fluorescence microscopy. In kind it is cell-based.
The target in experiment [2] is Histone deacetylase. Description: Inhibition of HDAC in human HeLa nuclear extract using fluor de lys as substrate after 10 to 15 mins by spectrofluorometry. Format: protein assay.
Experiment [3] addresses Histone deacetylase. As to the kind of experiment: Inhibition of HDAC in human HeLa cells using Boc-Lys(AC)-AMC as substrate after 24 to 48 hrs by spectrofluorometry. Format: cell-based.
The test system of experiment [4] is C127-LT. Description: Inhibition of HDAC in mouse C127-LT cells assessed as activation of EGFP expression at 1 uM after 24 hrs by fluorescence microscopy. In kind it is cell-based.
Experiment [5] has as its target T1, Histone deacetylase (Homo sapiens) (UniProt Q13547+O15379+Q9UBN7+Q92769+Q9UQL6+Q8WUI4+Q9BY41+Q96DB2+P56524+Q9UKV0+Q969S8). Description: Inhibition of HDAC in human HeLa nuclear extract assessed as accumulation of acetylated histone H3 at 0.1 to 100 uM after 24 hrs by western blot analysis. In kind it is protein assay. (In western blotting, separated proteins are transferred to a membrane and probed.)

The target in experiment [6] is T1, Histone deacetylase (Homo sapiens). The following applies: at 10 to 25 µM.
Description: Competitive inhibition of HDAC in human HeLa nuclear cells at 10 to 25 uM using Boc-acetyl-lysine-AMC as substrate after 30 mins by Lineweaver-Burk plot analysis
Experiment [7] relates to C127-LT. Description: Inhibition of HDAC in mouse C127-LT cells assessed as activation of EGFP expression at 200 nM after 24 hrs by fluorescence microscopy. Format: cell-based.

18 molecules from ChEMBL document CHEMBL3792339, “Identification of new quinic acid derivatives as histone deacetylase inhibitors by fluorescence-based cellular assay” (Bioorg Med Chem Lett, 2016) can be followed below.

One may read the IC50 as the concentration needed to halve the response being measured. A lower IC50 goes with greater potency in that assay.

Active and inactive are the calls of the source. The calls are words filed in the database; no cut-off is given here.

As to `C=C1C(=O)O[C@@H]2[C@H]3C(=C)[C@@H](O)C[C@H]3C(=C)C[C@H](OC(=O)C(C)(O)CO)[C@@H]12` (some centres undefined), the inhibition result in experiment [1] is “inactive”. Turning to `O=C(/C=C/c1ccc(O)c(O)c1)O[C@@H]1C[C@@](O)(C(=O)O)C[C@@H](O)[C@@H]1O`, in experiment [1], the inhibition result was “inactive”. The IC50 was 170.4 µM in experiment [2] and above 200 µM in experiment [3].

Take `C=C(CO)C(=O)O[C@H]1CC(=C)[C@@H]2C[C@H](O)C(=C)[C@@H]2[C@H]2OC(=O)C(=C)[C@@H]21`: the inhibition entry in experiment [1] is “inactive”. Same read-out and setting: under `C=C1[C@@H]2[C@H]3OC(=O)[C@@H](CN[C@@H](Cc4c[nH]c5ccccc45)C(=O)O)[C@@H]3[C@@H](O)CC(=C)[C@@H]2C[C@@H]1O` stands “inactive”. As to `Nc1ccccc1NC(=O)c1ccc(CNC(=O)OCc2cccnc2)cc1`, the inhibition result in experiment [4] and in experiment [1] was “Active” each time. Consider `C=C1[C@@H]2[C@H]3OC(=O)[C@@H](CN4CCC[C@H]4C(=O)O)[C@@H]3[C@@H](OC(=O)C(C)(O)CO)CC(=C)[C@@H]2C[C@@H]1O` (some centres undefined), for which, in experiment [1], the inhibition entry was “inactive”.

Turning to `C=C1C(=O)O[C@@H]2[C@H]3C(=C)[C@@H](O)C[C@H]3C(=C)C[C@H](OC(=O)CC(C)(C)O)[C@@H]12`, the inhibition result in experiment [1] is “inactive”. On to `O=C(/C=C/c1ccc(O)c(O)c1)O[C@@H]1C[C@](O)(C(=O)O)C[C@@H](OC(=O)/C=C/c2ccc(O)c(O)c2)[C@H]1O`, for which, in experiment [1], the inhibition entry is “inactive”. For the same molecule, the IC50 in experiment [2] was 143.24 µM; in experiment [3], above 500 µM.

As for `O=C(/C=C/c1ccc(O)c(O)c1)O[C@@H]1C[C@](O)(C(=O)O)C[C@@H](O)[C@H]1O` [CHLOROGENIC ACID], the inhibition result in experiment [1] is “inactive”. The IC50 in experiment [2] and in experiment [3] was above 200 µM throughout. As for `COc1ccc2cc3[n+](cc2c1OC)CCc1cc2c(cc1-3)OCO2`, the inhibition result in experiment [1] is “Active”. As for `COc1cc2c3c(cc4ccccc4c3c1O)NC2=O`, the inhibition result in experiment [1] is “inactive”. In the case of `C=C1[C@@H]2[C@H]3OC(=O)[C@@H](CN[C@H](C(=O)O)C(C)C)[C@@H]3[C@@H](O)CC(=C)[C@@H]2C[C@@H]1O`, the inhibition result in experiment [1] is “inactive”.

Take `COc1cc2c(cc1OC)[C@@H]1Cc3ccc(O)c(O)c3CN1CC2`: the inhibition result in experiment [1] is “Active”. Consider `COC(=O)[C@]1(O)C[C@@H](OC(=O)/C=C/c2ccc(O)c(O)c2)[C@@H](O)[C@H](OC(=O)/C=C/c2ccc(O)c(O)c2)C1`, for which the inhibition result in experiment [5], in experiment [1] and in experiment [6] was “Active” each time. Moreover, the IC50 in experiment [2] stood at 4.99 µM; in experiment [3], 7.59 µM. Take `C=C1CC[C@@H]2[C@](C)(CCC[C@]2(C)C(=O)O)[C@H]1CCC1=CC(OCCCC)OC1=O` (some centres undefined): the inhibition entry in experiment [1] was “inactive”. In the case of `CC(/C=C/C(=O)NO)=C\[C@@H](C)C(=O)c1ccc(N(C)C)cc1`, in experiment [7], the inhibition result is “Active”. As to `CC(=O)OCCc1ccc(O)c(O)c1`, the inhibition result in experiment [1] was “Active”. The same measure, in the same setting: under `COc1cc(-c2oc3cc(O)cc(O)c3c(=O)c2O[C@@H]2O[C@H](CO[C@@H]3O[C@@H](C)[C@H](O)[C@@H](O)[C@H]3O)[C@@H](O)[C@H](O)[C@H]2O)ccc1O` stands “Active”.
